Our source for the Papp A→B and Papp B→A values is article PMC7998731, “Pharmacokinetic Characterization of Supinoxin and Its Physiologically Based Pharmacokinetic Modeling in Rats” (Pharmaceutics, 2021).

The series is described as follows: Transport of supinoxin in Caco-2 cells (bidirectional permeability). The conditions noted are these: human, supinoxin 1 µM. Format: in vitro ADME. How it is done: The Caco-2 intestinal epithelial cell line (ATCC® HTB-37™) purchased from American Type Culture Collection (ATCC, Manassas, VA, USA) was cultured and maintained in Dulbecco’s modified Eagle medium (DMEM) containing 10% fetal bovine serum, 100 U/mL penicillin, and 0.1 mg/mL streptomycin under humidified atmosphere of air containing 5% CO2 at 37 °C. Caco-2 cells were seeded at a density of 6 × 10^4 cells/cm^2 onto polyethylene membranes of transwell plates (Corning Costar, Cambridge, MA, USA). The medium was replaced on alternate days after seeding, and cell monolayers were used for the transport assay after approximately 21 days of culture. Trans-epithelial electrical resistance (TEER) values of the Caco-2 monolayers were measured with an EVOM epithelial tissue voltmeter (World Precision Instruments, Sarasota, FL, USA), and cells with TEER greater than 300 Ω were used for the experiments. Cell monolayers were first rinsed three times with transport buffer (Hank’s balanced salt solution supplemented with 10 mM HEPES) and preincubated for 30 min at 37 °C. To measure the bidirectional transport of the compound, a transport buffer containing 1 µM supinoxin was added to the respective donor compartments (the apical and basolateral sides for absorptive and secretory transport assays, respectively). Samples (200 µL) were collected at 30, 60, 90, and 120 min, and an identical volume of fresh buffer was replenished. The samples were then subjected to LC–MS/MS analysis and concentrations of the samples were determined. After the final sampling from both compartments, we measured the TEER of the monolayers to ensure no possible adverse effects induced by the experimental procedures and then estimated the apparent permeability coefficient of supinoxin from the compound’s time-dependent accumulation (dQ/dt) in the receiver compartments using the following equation: Papp = dQ/dt × 1/(A × C0)(1) where dQ/dt is the rate of transport, A is the surface area of the filter, and C0 is the initial concentration in the donor chamber.
(Caco-2 cells form a polarised layer with tight junctions and transporters.)

The structures appear in SMILES notation.

Take `COCCc1ccc(OCC(O)CNC(C)C)cc1` (centres unmarked) [metoprolol, reference compound]: where the note is “Caco-2, Caco-2 cell monolayers, read-out: apical to basolateral apparent permeability coefficient”, the Papp A→B at 120 min, 1 µM turned out to be 15.5 ± 0.8 ×10⁻⁶ cm/s. Besides, the Papp B→A at 120 min, 1 µM (Caco-2 cell monolayers, read-out: basolateral to apical apparent permeability coefficient) was 15.7 ± 0.8 ×10⁻⁶ cm/s.
